Data reported in PubChem BioAssay (NCI).
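A five-concentration, 48-hour dose response in 96-well plates underlies each endpoint, interpolated linearly between surrounding concentrations. GI50: concentration for 50% inhibition of growth. At the TGI there is no net growth.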

Key:
Assay in all cases: NCI tumour cell line growth inhibition, 48 h
MDA-N = system: MDA-N
DMS 273 small cell lung = system: DMS 273 small cell lung
SNB-78 CNS = system: SNB-78 CNS
KM20L2 colon = system: KM20L2 colon
DMS 114 small cell lung = system: DMS 114 small cell lung
M19-MEL melanoma = system: M19-MEL melanoma
RXF-631 renal = system: RXF-631 renal
LXFL 529 NSCLC = system: LXFL 529 NSCLC
HOP-18 NSCLC = system: HOP-18 NSCLC
P388/ADR leukemia = system: P388/ADR leukemia
SN12K1 renal = system: SN12K1 renal
P388 leukemia = system: P388 leukemia

Work on `CCSCCCC(=O)O` yielded a TGI (MDA-N) greater than 100 µM.
`N#CC(C#N)=C1CCC2C(=C(C#N)C#N)CCC12` (configuration not stated) gave a TGI (DMS 273 small cell lung) greater than 100 µM, a TGI (SNB-78 CNS) greater than 100 µM and a TGI (KM20L2 colon) greater than 100 µM. It also gave a TGI (DMS 114 small cell lung) greater than 100 µM, a TGI (M19-MEL melanoma) greater than 100 µM and a TGI (RXF-631 renal) greater than 100 µM. The TGI (LXFL 529 NSCLC) was greater than 100 µM.
`O=c1[nH]c(=O)n(C2OC(CO)C(O)C2O)cc1F` (configuration not stated) was tested, and the TGI (DMS 273 small cell lung) was greater than 100 µM, the TGI (SNB-78 CNS) was 60.1 µM and the TGI (KM20L2 colon) was greater than 100 µM. It also gave a TGI (DMS 114 small cell lung) greater than 100 µM, a TGI (M19-MEL melanoma) greater than 100 µM and a TGI (MDA-N) greater than 70.5 µM. It also gave a TGI (HOP-18 NSCLC) greater than 100 µM, a TGI (RXF-631 renal) greater than 100 µM and a TGI (LXFL 529 NSCLC) greater than 100 µM.
In the case of `FC(F)(F)c1nc(Br)[nH]c1C(F)(F)F`, the TGI (DMS 273 small cell lung) is reported as greater than 100 µM, the TGI (SNB-78 CNS) is reported as greater than 100 µM and the TGI (KM20L2 colon) is reported as greater than 100 µM. For the same compound, the TGI (DMS 114 small cell lung) was greater than 100 µM, the TGI (M19-MEL melanoma) was greater than 100 µM and the TGI (HOP-18 NSCLC) was 93.2 µM. For the same compound, the TGI (RXF-631 renal) was greater than 100 µM and the TGI (LXFL 529 NSCLC) was greater than 100 µM.
With `CC(=O)[CH-]C(=O)c1ccccc1.CC(=O)[CH-]C(=O)c1ccccc1.CC(=O)[CH-]C(=O)c1ccccc1.[Br-].[Zr+4]` the GI50 (KM20L2 colon) was 51.6 µM, the TGI (KM20L2 colon) was greater than 100 µM and the GI50 (M19-MEL melanoma) was 85.8 µM. It also gave a TGI (M19-MEL melanoma) greater than 100 µM, a GI50 (LXFL 529 NSCLC) of 70.7 µM and a TGI (LXFL 529 NSCLC) greater than 100 µM.
`CC(C)(C)OC1=C(OC(C)(C)C)C(O)(c2ccc(Cl)cc2)C1=O` (configuration not stated) was tested, and the TGI (DMS 273 small cell lung) was greater than 100 µM, the TGI (SNB-78 CNS) was greater than 100 µM and the TGI (DMS 114 small cell lung) was greater than 100 µM. It also gave a TGI (M19-MEL melanoma) greater than 100 µM, a TGI (HOP-18 NSCLC) greater than 100 µM and a TGI (RXF-631 renal) greater than 100 µM. For the same compound, the TGI (LXFL 529 NSCLC) was greater than 100 µM.
Work on `C=C1C(C(=O)O)C1C(=O)O` (configuration not stated) yielded a TGI (DMS 273 small cell lung) greater than 100 µM, a TGI (SNB-78 CNS) greater than 100 µM and a TGI (KM20L2 colon) greater than 100 µM. The TGI (DMS 114 small cell lung) was greater than 100 µM, the TGI (M19-MEL melanoma) was greater than 100 µM and the TGI (HOP-18 NSCLC) was greater than 100 µM.
For `c1ccc(/C(=N\Nc2nc3ccccc3s2)c2ccccn2)cc1`, the TGI (MDA-N) was greater than 100 µM.
In the case of `CSc1cc(C(C)(C)C)ccc1C(O)c1ccc(C(C)(C)C)cc1SC`, the TGI (DMS 273 small cell lung) is reported as 26.9 µM, the TGI (SNB-78 CNS) is reported as 40.3 µM and the TGI (KM20L2 colon) is reported as 23.8 µM. The TGI (DMS 114 small cell lung) was 22.5 µM, the TGI (M19-MEL melanoma) was 23.5 µM and the TGI (HOP-18 NSCLC) was 34 µM. The TGI (LXFL 529 NSCLC) was 32.5 µM.
`CCc1ccccc1NC(=O)C(=O)C(C#N)c1c(Cl)cccc1Cl` (configuration not stated) showed a TGI (DMS 273 small cell lung) greater than 100 µM, a TGI (SNB-78 CNS) greater than 100 µM and a TGI (KM20L2 colon) greater than 100 µM. It also gave a TGI (M19-MEL melanoma) greater than 100 µM, a TGI (RXF-631 renal) greater than 100 µM and a TGI (LXFL 529 NSCLC) greater than 100 µM.
In the case of `Nc1ncnc2c1ncn2CCCCC(=O)O`, the TGI (MDA-N) is reported as greater than 100 µM.
Compound `NS(=O)(=O)c1cc(C(=O)O)c(Cl)c([N+](=O)[O-])c1Cl` has a TGI (MDA-N) greater than 100 µM.
`CNC(=O)NCCN1N=C(C)/C(=C\c2ccccc2)CC1=O` gave a TGI (DMS 273 small cell lung) greater than 100 µM, a TGI (SNB-78 CNS) greater than 100 µM and a TGI (M19-MEL melanoma) greater than 100 µM. For the same compound, the TGI (RXF-631 renal) was greater than 100 µM and the TGI (LXFL 529 NSCLC) was greater than 100 µM.
`O=C(Nc1cc2cc([N+](=O)[O-])ccc2oc1=O)c1cccs1` showed a TGI (MDA-N) greater than 100 µM.
Compound `CCN(CC)CCCC(C)Nc1ccnc(/C=C/c2ccc(Cl)cc2)c1` (configuration not stated) has a TGI (MDA-N) of 3.62 µM.
Work on `CC[P+]1(c2ccccc2)CCCCC1` yielded a TGI (DMS 273 small cell lung) greater than 100 µM, a TGI (SNB-78 CNS) greater than 100 µM and a TGI (KM20L2 colon) greater than 100 µM. For the same compound, the TGI (DMS 114 small cell lung) was greater than 100 µM, the TGI (M19-MEL melanoma) was greater than 100 µM and the TGI (HOP-18 NSCLC) was greater than 100 µM. It also gave a TGI (RXF-631 renal) greater than 100 µM and a TGI (LXFL 529 NSCLC) greater than 100 µM.
`C=CCC1C(=O)CC2(C)C(CC=C)C(=O)CC12C` (configuration not stated) gave a TGI (DMS 273 small cell lung) greater than 100 µM, a TGI (KM20L2 colon) greater than 100 µM and a TGI (M19-MEL melanoma) greater than 100 µM. It also gave a TGI (HOP-18 NSCLC) greater than 100 µM, a TGI (RXF-631 renal) greater than 100 µM and a TGI (LXFL 529 NSCLC) greater than 100 µM.
Compound `NC(=O)c1ncn2c(=O)n(CCCl)nnc12` has a TGI (DMS 273 small cell lung) of 275 µM, a TGI (SNB-78 CNS) of 527 µM and a TGI (KM20L2 colon) of 319 µM. It also gave a TGI (DMS 114 small cell lung) of 131 µM, a TGI (P388/ADR leukemia) of 335 µM and a TGI (M19-MEL melanoma) of 376 µM. The TGI (MDA-N) was 338 µM, the TGI (HOP-18 NSCLC) was 1130 µM and the TGI (SN12K1 renal) was 266 µM. It also gave a TGI (P388 leukemia) of 482 µM.
`O=C1CCc2ccc(O)c(c2)Oc2ccc(cc2)[C@@H]2O[C@@H]2CO1` showed a TGI (KM20L2 colon) greater than 100 µM, a TGI (DMS 114 small cell lung) of 67 µM and a TGI (M19-MEL melanoma) greater than 100 µM. It also gave a TGI (HOP-18 NSCLC) of 80.7 µM and a TGI (LXFL 529 NSCLC) greater than 100 µM.
Compound `N#CC1=C(c2ccccc2)OC2(N)OC(c3ccccc3)=C(C#N)C12C#N` (configuration not stated) has a TGI (DMS 273 small cell lung) greater than 100 µM, a TGI (SNB-78 CNS) greater than 100 µM and a TGI (KM20L2 colon) greater than 100 µM. It also gave a TGI (DMS 114 small cell lung) greater than 100 µM, a TGI (M19-MEL melanoma) greater than 100 µM and a TGI (HOP-18 NSCLC) of 75.1 µM. The TGI (RXF-631 renal) was greater than 100 µM and the TGI (LXFL 529 NSCLC) was greater than 100 µM.
Work on `O=C(O)c1cc(Cl)cc(Cc2cc(Cl)cc(C(=O)O)c2O)c1O` yielded a TGI (MDA-N) greater than 100 µM.
`COc1ccc(C(Nc2ccccn2)c2cc(C(C)(C)C)cc(C(C)(C)C)c2O)cc1` (configuration not stated) gave a TGI (MDA-N) greater than 100 µM.
`COc1cc(/C=C/c2ccnc3ccccc23)cc(OC)c1OC` was tested, and the TGI (MDA-N) was 1.74 µM.
`CC(=N\O)/C(C)=N/O.CC(=N\O)/C(C)=N/O.[Fe].[NH2-].c1c[nH]cn1` gave a GI50 (MDA-N) greater than 100 µM and a TGI (MDA-N) greater than 100 µM.
`CCC(C)C(=O)OC1CCC=C2C=CC(C)C(CCC3CC(O)CC(=O)O3)C21` (configuration not stated) was tested, and the TGI (MDA-N) was greater than 100 µM.
`Oc1ccc(/C=N/NC(=S)Nc2cccnc2)nc1` gave a TGI (MDA-N) greater than 100 µM.
`CN(C)CCNC(=O)c1cccc2c1nc(-c1ccncc1)c1ccccc12` showed a TGI (DMS 273 small cell lung) of 12.3 µM, a TGI (SNB-78 CNS) of 23.2 µM and a TGI (DMS 114 small cell lung) of 14.2 µM. For the same compound, the TGI (M19-MEL melanoma) was 11.9 µM and the TGI (HOP-18 NSCLC) was 51.1 µM.
In the case of `CC(=N/NC(N)=S)/C(C)=N/NC(N)=S`, the TGI (MDA-N) is reported as greater than 100 µM.
Work on `C/C(=N\NC(=S)N1CCN(c2ccccn2)CC1)c1cccc2cccnc12` yielded a TGI (MDA-N) greater than 100 µM.
`O=C(OCc1ccccc1)n1cccc1` gave a TGI (DMS 273 small cell lung) greater than 100 µM, a TGI (SNB-78 CNS) greater than 100 µM and a TGI (KM20L2 colon) greater than 100 µM. For the same compound, the TGI (DMS 114 small cell lung) was greater than 100 µM, the TGI (M19-MEL melanoma) was greater than 100 µM and the TGI (HOP-18 NSCLC) was greater than 100 µM. For the same compound, the TGI (RXF-631 renal) was greater than 100 µM and the TGI (LXFL 529 NSCLC) was greater than 100 µM.
`CCOC(=O)CCn1cnc(N)n1` gave a TGI (DMS 273 small cell lung) greater than 100 µM, a TGI (SNB-78 CNS) greater than 100 µM and a TGI (KM20L2 colon) greater than 100 µM. For the same compound, the TGI (DMS 114 small cell lung) was greater than 100 µM, the TGI (M19-MEL melanoma) was greater than 100 µM and the TGI (HOP-18 NSCLC) was greater than 100 µM. The TGI (RXF-631 renal) was greater than 100 µM and the TGI (LXFL 529 NSCLC) was greater than 100 µM.
Compound `Cc1ccc(NC(=O)CCC(=O)C2Cc3ccccc3C2=O)cc1C` (configuration not stated) has a TGI (DMS 273 small cell lung) greater than 100 µM, a TGI (SNB-78 CNS) greater than 100 µM and a TGI (KM20L2 colon) greater than 100 µM. The TGI (DMS 114 small cell lung) was greater than 100 µM, the TGI (M19-MEL melanoma) was greater than 100 µM and the TGI (HOP-18 NSCLC) was greater than 100 µM. It also gave a TGI (LXFL 529 NSCLC) greater than 100 µM.
For `Oc1cc(O)c2c(c1)OC(c1ccc(O)c(O)c1)C(O)C2c1c(O)cc(O)c2c1OC(c1ccc(O)c(O)c1)C(O)C2` (configuration not stated), the TGI (MDA-N) was greater than 100 µM.
`O=C1c2ccccc2C(=O)c2sc(Nc3ccc([N+](=O)[O-])cc3)nc21` gave a TGI (DMS 273 small cell lung) of 14.6 µM, a TGI (SNB-78 CNS) of 42 µM and a TGI (KM20L2 colon) of 45.6 µM. The TGI (DMS 114 small cell lung) was 6.32 µM, the TGI (M19-MEL melanoma) was 3 µM and the TGI (MDA-N) was 3.49 µM. It also gave a TGI (HOP-18 NSCLC) of 9.03 µM, a TGI (RXF-631 renal) greater than 55.1 µM and a TGI (LXFL 529 NSCLC) of 3.06 µM.
Compound `O=C(O)c1[nH]c2c([N+](=O)[O-])cc([N+](=O)[O-])cc2c1C(=O)O` has a TGI (MDA-N) of 92.9 µM.
